From ChEMBL document CHEMBL1135773, “Purine and pyrimidine (P2) receptors as drug targets” (J Med Chem, 2002)

Assays:
[1] = biological target: T1, P2X purinoceptor 3 (Homo sapiens, UniProt P56373); assay: Antagonist activity against recombinant human P2X purinoceptor 3 (P2X3 ); type: functional
T1 sequence (P56373 whole entry): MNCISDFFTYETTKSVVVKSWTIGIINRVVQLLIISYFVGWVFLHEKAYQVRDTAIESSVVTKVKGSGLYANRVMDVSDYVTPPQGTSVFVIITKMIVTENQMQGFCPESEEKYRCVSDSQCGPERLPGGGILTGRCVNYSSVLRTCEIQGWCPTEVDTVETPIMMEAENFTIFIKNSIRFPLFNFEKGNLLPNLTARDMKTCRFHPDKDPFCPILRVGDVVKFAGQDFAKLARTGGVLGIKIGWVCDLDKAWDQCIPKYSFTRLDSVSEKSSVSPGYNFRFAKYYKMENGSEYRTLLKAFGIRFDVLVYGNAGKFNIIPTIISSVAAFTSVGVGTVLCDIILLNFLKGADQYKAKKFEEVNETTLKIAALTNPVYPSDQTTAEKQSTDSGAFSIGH

[2] = biological target: T2, P2X purinoceptor 5 (Rattus norvegicus, UniProt P51578); assay: Antagonist activity against recombinant rat P2X purinoceptor 5 (P2X5); type: functional
T2 sequence (P51578 whole entry): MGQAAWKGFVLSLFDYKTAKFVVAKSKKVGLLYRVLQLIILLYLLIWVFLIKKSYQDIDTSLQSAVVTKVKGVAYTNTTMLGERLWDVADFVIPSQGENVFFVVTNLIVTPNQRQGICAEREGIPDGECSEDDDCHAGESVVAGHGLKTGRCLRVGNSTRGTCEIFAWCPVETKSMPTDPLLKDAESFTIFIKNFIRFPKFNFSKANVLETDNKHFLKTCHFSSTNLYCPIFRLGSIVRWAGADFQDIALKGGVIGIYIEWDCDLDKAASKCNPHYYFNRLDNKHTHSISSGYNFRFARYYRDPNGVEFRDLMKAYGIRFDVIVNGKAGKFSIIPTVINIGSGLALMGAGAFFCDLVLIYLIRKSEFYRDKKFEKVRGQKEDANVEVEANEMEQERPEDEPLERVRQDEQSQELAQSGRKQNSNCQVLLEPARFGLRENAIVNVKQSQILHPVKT

[3] = biological target: T3, P2X purinoceptor 2 (Rattus norvegicus, UniProt P49653); assay: Antagonist activity against recombinant rat receptor P2X purinoceptor 2 (P2X2) at 10 uM, expressed in Xenopus oocytes; type: functional, cell-based, Oocyte
T3 sequence (P49653 whole entry): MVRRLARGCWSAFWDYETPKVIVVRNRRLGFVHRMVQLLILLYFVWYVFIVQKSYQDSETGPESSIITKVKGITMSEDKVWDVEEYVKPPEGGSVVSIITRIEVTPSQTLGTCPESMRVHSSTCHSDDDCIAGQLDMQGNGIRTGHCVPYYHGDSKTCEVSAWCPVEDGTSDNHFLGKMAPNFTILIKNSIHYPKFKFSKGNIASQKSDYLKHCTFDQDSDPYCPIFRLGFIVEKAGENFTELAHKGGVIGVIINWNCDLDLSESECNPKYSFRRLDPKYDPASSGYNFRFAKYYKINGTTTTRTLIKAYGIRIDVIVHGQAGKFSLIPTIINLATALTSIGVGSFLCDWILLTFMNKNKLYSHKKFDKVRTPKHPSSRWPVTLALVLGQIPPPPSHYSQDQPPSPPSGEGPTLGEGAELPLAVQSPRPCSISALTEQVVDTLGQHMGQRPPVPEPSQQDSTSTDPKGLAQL

[4] = biological target: T4, P2X purinoceptor 7 (Homo sapiens, UniProt Q99572); assay: Antagonist activity against recombinant human P2X purinoceptor 7 (P2X7); type: functional
T4 sequence (Q99572 whole entry): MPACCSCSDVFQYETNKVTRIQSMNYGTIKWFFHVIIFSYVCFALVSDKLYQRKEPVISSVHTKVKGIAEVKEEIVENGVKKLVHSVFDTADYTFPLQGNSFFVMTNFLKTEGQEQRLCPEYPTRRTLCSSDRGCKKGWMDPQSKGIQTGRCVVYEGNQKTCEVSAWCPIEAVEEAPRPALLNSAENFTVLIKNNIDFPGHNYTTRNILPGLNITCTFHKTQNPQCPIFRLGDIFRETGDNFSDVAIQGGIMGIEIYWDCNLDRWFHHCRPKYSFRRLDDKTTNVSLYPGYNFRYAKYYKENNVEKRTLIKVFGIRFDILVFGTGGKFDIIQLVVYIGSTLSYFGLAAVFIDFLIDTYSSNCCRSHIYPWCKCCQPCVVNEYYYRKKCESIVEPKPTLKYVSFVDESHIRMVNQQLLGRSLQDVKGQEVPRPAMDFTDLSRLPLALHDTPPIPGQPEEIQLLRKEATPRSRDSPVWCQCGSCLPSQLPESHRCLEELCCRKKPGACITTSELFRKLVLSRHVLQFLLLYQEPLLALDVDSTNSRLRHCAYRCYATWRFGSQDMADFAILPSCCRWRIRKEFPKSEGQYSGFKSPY

[5] = biological target: P2X purinoceptor 6 (Rattus norvegicus, UniProt P51579); assay: Antagonist activity against recombinant rat P2X purinoceptor 6 (P2X6 ); type: functional
[6] = biological target: T5, P2X purinoceptor 1 (Homo sapiens, UniProt P51575); assay: Antagonist activity against recombinant human P2X purinoceptor 1 (P2X1 ); type: functional
T5 sequence (P51575 whole entry): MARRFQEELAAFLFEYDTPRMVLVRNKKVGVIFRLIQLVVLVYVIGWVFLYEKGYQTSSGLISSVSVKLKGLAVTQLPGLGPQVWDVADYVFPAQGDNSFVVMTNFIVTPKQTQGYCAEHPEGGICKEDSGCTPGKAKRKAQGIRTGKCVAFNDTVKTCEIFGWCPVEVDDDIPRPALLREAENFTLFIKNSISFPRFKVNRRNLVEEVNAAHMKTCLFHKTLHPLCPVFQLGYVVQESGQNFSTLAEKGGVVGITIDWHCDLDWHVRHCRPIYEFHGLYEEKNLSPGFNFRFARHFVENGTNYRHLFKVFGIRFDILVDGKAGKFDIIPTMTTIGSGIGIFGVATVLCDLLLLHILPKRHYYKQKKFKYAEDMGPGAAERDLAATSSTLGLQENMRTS

[7] = biological target: P2Y purinoceptor 12 (Rattus norvegicus, UniProt Q9EPX4); assay: Antagonist activity against phospholipase C coupled rat P2Y purinoceptor 12 (P2Y12); type: functional
[8] = biological target: P2Y purinoceptor 1 (Meleagris gallopavo, UniProt P49652); assay: Evaluated for agonist activity against phospholipase C coupled P2Y purinoceptor 1 (P2Y1) of turkey erythrocytes; type: functional
[9] = biological target: T6, P2X purinoceptor 4 (Rattus norvegicus, UniProt P51577); assay: Antagonist activity against recombinant rat P2X purinoceptor 4 (P2X4) at 30 uM, expressed in Xenopus oocytes; type: functional, cell-based, Oocyte
T6 sequence (P51577 whole entry): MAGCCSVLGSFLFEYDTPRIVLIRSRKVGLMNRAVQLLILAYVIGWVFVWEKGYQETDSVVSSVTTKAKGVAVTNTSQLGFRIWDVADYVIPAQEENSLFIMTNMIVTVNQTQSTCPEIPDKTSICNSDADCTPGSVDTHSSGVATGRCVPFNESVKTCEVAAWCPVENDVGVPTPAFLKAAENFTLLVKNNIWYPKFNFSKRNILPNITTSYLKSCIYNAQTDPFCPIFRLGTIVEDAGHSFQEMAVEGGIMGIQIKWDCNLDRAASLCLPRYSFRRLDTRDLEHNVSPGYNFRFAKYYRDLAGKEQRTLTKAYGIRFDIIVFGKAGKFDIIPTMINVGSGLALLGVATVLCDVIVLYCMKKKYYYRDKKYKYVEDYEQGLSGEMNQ

[10] = biological target: P2Y purinoceptor 1 (Homo sapiens, UniProt P47900); assay: Evaluated for agonist activity against phospholipase C coupled P2Y purinoceptor 1 (P2Y1) of human erythrocytes; type: functional
[11] = biological target: P2Y purinoceptor 6 (Homo sapiens, UniProt Q15077); assay: The compound was evaluated for agonist activity against phospholipase C coupled recombinant human P2Y purinoceptor 6 (P2Y6); type: functional
[12] = biological target: P2Y purinoceptor 2 (Homo sapiens, UniProt P41231); assay: Evaluated for agonist activity against phospholipase C coupled recombinant human P2Y purinoceptor 2 (P2Y2); type: functional
[13] = biological target: P2Y purinoceptor 4 (Rattus norvegicus, UniProt O35811); assay: The compound was evaluated for antagonist activity against phospholipase C coupled recombinant rat P2Y purinoceptor 4 (P2Y4); type: functional
[14] = biological target: P2X purinoceptor 2 (Homo sapiens, UniProt Q9UBL9); assay: The compound was evaluated for antagonist activity against recombinant human receptor P2X purinoceptor 2 (P2X2 ); type: functional
[15] = biological target: T7, P2X purinoceptor 4 (Homo sapiens, UniProt Q99571); assay: Antagonist activity against recombinant human P2X purinoceptor 4 (P2X4); type: functional
T7 sequence (Q99571 whole entry): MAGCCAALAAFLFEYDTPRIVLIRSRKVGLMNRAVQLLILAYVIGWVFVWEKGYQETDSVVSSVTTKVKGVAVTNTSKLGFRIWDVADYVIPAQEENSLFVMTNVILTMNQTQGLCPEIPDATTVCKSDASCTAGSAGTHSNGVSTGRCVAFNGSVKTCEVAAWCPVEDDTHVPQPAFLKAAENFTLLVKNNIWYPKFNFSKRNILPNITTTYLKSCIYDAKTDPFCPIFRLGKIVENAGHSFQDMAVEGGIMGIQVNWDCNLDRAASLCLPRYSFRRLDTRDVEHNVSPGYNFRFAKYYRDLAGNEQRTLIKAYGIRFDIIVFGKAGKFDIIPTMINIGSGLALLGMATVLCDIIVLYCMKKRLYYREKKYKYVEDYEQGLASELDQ

[16] = biological target: T8, P2Y purinoceptor 11 (Homo sapiens, UniProt Q96G91); assay: Agonist activity against phospholipase C coupled human P2Y purinoceptor 11 (P2Y11); type: functional
T8 sequence (Q96G91 whole entry): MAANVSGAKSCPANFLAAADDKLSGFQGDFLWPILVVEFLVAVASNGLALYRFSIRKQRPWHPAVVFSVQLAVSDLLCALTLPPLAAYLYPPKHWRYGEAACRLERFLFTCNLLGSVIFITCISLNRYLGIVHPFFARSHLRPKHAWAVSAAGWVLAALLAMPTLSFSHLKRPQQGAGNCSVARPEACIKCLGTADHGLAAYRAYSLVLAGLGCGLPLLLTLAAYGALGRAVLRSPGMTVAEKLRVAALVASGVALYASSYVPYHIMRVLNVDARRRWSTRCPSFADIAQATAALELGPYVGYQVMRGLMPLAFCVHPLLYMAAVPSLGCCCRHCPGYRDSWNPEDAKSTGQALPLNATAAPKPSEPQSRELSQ

[17] = biological target: T9, P2X purinoceptor 1 (Rattus norvegicus, UniProt P47824); assay: The compound was evaluated for antagonist activity against recombinant rat P2X purinoceptor 1 (P2X1); type: functional
T9 sequence (P47824 whole entry): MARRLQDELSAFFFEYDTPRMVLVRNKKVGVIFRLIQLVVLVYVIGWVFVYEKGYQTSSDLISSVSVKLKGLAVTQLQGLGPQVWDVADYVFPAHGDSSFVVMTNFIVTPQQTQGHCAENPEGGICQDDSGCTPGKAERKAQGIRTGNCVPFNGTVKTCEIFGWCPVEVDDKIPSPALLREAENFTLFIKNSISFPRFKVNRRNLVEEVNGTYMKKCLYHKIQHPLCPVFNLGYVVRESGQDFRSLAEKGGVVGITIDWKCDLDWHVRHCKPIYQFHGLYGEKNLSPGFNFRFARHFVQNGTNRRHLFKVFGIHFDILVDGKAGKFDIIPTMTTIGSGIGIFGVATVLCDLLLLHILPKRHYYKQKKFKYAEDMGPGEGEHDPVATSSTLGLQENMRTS

[18] = biological target: T1, P2X purinoceptor 3; assay: The compound was evaluated for antagonist activity against recombinant human P2X purinoceptor 3 (P2X3 ); type: functional

Chain of P2Y purinoceptor 2 (P41231 whole entry): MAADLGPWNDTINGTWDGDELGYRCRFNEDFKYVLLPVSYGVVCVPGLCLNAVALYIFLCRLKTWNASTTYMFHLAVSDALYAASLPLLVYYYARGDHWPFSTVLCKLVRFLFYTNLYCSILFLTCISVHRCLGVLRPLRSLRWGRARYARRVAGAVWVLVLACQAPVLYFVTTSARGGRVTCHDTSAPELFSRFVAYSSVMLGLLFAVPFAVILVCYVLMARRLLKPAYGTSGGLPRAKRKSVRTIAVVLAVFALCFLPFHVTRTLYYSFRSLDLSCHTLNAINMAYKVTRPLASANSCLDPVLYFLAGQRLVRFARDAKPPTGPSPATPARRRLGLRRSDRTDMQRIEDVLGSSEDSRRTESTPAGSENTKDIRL
Chain of P2X purinoceptor 2 (Homo sapiens, UniProt Q9UBL9) (Q9UBL9 whole entry): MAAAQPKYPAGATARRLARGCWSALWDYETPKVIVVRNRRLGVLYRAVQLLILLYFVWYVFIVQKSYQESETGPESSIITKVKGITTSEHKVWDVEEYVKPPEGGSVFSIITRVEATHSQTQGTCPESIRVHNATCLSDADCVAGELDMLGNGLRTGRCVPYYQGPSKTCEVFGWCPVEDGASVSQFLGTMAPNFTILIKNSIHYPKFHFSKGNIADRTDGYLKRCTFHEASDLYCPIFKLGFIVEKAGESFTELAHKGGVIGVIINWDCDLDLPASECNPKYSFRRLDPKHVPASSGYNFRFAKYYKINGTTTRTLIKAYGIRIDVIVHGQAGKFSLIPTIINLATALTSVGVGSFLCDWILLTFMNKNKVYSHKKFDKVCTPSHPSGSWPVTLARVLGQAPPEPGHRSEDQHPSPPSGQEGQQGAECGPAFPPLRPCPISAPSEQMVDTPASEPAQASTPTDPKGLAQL
Chain of P2Y purinoceptor 12 (Q9EPX4 whole entry): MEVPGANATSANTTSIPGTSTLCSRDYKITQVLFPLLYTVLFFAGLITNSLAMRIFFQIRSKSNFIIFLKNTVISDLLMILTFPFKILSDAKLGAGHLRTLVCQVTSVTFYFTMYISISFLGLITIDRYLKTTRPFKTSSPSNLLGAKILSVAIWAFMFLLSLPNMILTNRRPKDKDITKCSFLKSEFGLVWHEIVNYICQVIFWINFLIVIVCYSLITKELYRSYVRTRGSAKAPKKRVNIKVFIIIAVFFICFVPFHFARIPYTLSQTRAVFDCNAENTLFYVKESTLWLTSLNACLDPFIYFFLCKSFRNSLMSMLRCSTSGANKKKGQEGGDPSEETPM
Chain of P2Y purinoceptor 1 (Homo sapiens, UniProt P47900) (P47900 whole entry): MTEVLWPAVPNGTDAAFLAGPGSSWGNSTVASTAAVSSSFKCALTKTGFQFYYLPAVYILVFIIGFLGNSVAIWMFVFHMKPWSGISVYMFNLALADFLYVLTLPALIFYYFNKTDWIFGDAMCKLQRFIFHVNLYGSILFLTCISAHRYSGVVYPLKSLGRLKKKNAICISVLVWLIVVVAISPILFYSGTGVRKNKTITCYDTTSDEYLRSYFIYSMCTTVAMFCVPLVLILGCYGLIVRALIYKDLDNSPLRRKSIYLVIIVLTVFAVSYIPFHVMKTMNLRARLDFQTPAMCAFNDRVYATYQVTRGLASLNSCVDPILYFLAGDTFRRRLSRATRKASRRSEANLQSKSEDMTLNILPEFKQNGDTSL
Chain of P2X purinoceptor 6 (P51579 whole entry): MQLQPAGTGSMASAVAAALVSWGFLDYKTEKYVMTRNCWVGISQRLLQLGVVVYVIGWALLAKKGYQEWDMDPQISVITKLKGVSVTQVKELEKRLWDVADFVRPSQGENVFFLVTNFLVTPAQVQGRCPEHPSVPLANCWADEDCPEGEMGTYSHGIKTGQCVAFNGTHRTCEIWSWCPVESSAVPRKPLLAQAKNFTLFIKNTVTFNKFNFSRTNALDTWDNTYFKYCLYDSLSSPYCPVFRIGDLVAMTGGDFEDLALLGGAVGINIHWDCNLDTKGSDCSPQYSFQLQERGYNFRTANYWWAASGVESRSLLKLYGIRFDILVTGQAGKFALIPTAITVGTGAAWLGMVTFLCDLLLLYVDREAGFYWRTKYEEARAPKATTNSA
Chain of P2Y purinoceptor 6 (Q15077 whole entry): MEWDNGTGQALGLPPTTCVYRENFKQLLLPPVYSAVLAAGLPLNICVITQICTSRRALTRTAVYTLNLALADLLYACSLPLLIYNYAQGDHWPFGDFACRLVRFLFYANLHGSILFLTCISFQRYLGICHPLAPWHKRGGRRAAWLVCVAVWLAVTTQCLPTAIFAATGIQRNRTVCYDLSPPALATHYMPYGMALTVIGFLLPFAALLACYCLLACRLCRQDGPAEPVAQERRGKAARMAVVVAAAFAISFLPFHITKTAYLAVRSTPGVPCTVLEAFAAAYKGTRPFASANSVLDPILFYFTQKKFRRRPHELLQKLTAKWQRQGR
Chain of P2Y purinoceptor 4 (O35811 whole entry): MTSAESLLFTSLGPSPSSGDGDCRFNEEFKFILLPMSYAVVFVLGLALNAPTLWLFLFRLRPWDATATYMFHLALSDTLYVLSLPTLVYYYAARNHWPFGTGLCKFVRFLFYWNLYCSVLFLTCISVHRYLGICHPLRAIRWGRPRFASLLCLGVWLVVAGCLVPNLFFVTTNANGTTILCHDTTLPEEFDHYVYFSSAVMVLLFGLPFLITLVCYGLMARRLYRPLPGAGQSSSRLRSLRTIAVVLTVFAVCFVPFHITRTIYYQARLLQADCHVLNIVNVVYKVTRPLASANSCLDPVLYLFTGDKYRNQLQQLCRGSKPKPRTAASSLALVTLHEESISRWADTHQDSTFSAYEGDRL
Chain of P2Y purinoceptor 1 (Meleagris gallopavo, UniProt P49652) (P49652 whole entry): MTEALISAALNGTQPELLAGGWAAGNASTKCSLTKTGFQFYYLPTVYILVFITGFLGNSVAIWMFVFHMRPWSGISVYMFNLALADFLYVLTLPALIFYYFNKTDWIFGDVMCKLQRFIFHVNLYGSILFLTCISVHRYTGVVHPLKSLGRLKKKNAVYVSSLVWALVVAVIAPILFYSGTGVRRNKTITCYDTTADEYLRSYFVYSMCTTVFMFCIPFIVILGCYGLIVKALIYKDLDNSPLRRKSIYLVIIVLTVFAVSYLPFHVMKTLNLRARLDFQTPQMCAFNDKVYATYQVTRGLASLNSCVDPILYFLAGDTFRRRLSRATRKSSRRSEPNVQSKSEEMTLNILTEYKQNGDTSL

Nc1ncnc2c1ncn2[C@@H]1O[C@H](COP(=O)(O)CP(=O)(O)OP(=O)(O)O)[C@@H](O)[C@H]1O [DIPHOSPHOMETHYLPHOSPHONIC ACID ADENOSYL ESTER]
EC50 [1]: 0.74 µM | EC50 [2]: > 7 µM | EC50 [3]: 100 µM | EC50 [4]: > 100 µM | EC50 [5]: > 8 µM | EC50 [6]: 0.2 µM | EC50 [7]: > 100 µM | EC50 [8]: > 100 µM | EC50 [9]: 33 µM

O=c1ccn([C@@H]2O[C@H](COP(=O)(O)OP(=O)(O)O)[C@@H](O)[C@H]2O)c(=O)[nH]1 [URIDINE_DIPHOSPHATE]
EC50 [10]: > 100 µM | EC50 [11]: 0.3 µM | EC50 [12]: > 100 µM

Nc1ncnc2c1ncn2[C@@H]1O[C@H](COP(=O)(O)OP(=O)(O)OP(=O)(O)OP(=O)(O)OC[C@H]2O[C@@H](n3cnc4c(N)ncnc43)[C@H](O)[C@@H]2O)[C@@H](O)[C@H]1O [DIADENOSINE TETRAPHOSPHATE]
EC50 [13]: 3 µM | EC50 [14]: 15 µM | EC50 [1]: 0.5 µM | EC50 [15]: 1 µM | EC50 [12]: 0.72 µM | EC50 [6]: 0.182 µM

O=c1ccn([C@@H]2O[C@H](COP(=O)(O)OP(=O)(O)OP(=O)(O)O)[C@@H](O)[C@H]2O)c(=O)[nH]1 [URIDINE TRIPHOSPHATE]
EC50 [13]: 2.6 µM | EC50 [16]: > 100 µM | EC50 [10]: > 100 µM | EC50 [11]: 6 µM | EC50 [12]: 0.14 µM

CN([C@@H](Cc1ccc(OS(=O)(=O)c2cccc3cnccc23)cc1)C(=O)N1CCN(c2ccccc2)CC1)S(=O)(=O)c1cccc2cnccc12
EC50 [15]: 100 µM | EC50 [4]: 0.034 µM

Cc1nc(/N=N/c2cc(S(=O)(=O)O)ccc2S(=O)(=O)O)c(COP(=O)(O)O)c(C=O)c1O [ISOPPADS]
EC50 [17]: 0.043 µM | IC50 [18]: 0.084 µM

Nc1ncnc2c1ncn2[C@@H]1O[C@H](COP(=O)(O)OP(=O)(O)O)[C@@H](O)[C@H]1O [ADENOSINE DIPHOSPHATE]
EC50 [14]: > 100 µM | EC50 [1]: > 100 µM | EC50 [2]: 18 µM | EC50 [12]: > 100 µM | EC50 [5]: 11 µM | EC50 [6]: 10 µM | EC50 [7]: 0.069 µM | EC50 [9]: 28 µM
